For this series, the system named is rodent carcinogenicity bioassays, tumor incidence. The series can be described thus: CCRIS carcinogenicity studies. A digest of the protocol:
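Archive of carcinogenicity, mutagenicity, tumor promotion and tumor inhibition results drawn from journals, NCI reports and other sources, expert-reviewed; covers 1985-2011 and is no longer updated.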

Active and inactive are the calls of the source. The rule behind the calls is not given here.

As to `Oc1ccc2c(c1)OCO2`, the carcinogen call by setting is: (Species: MOUSE, Strain/Sex: B6C3F1/FEMALE, Route: ORAL, Dose: 0, 2% IN DIET FOR 96 WK (STUDY DURATION: 96 WK), Tumor Site: Type of Lesion: FORESTOMACH: SQUAMOUS CELL CARCINOMA) “active; positive”; (Species: MOUSE, Strain/Sex: B6C3F1/FEMALE, Route: ORAL, Dose: 0, 2% IN POWDERED BASAL DIET FOR 96 WK (STUDY DURATION: 96 WK), Tumor Site: Type of Lesion: FORESTOMACH: SQUAMOUS CELL CARCINOMA) “active; positive”; (Species: MOUSE, Strain/Sex: B6C3F1/MALE, Route: ORAL, Dose: 0, 2% IN DIET FOR 96 WK (STUDY DURATION: 96 WK), Tumor Site: Type of Lesion: FORESTOMACH: SQUAMOUS CELL CARCINOMA) “active; positive”; (Species: MOUSE, Strain/Sex: B6C3F1/MALE, Route: ORAL, Dose: 0, 2% IN POWDERED BASAL DIET FOR 96 WK (STUDY DURATION: 96 WK), Tumor Site: Type of Lesion: FORESTOMACH: SQUAMOUS CELL CARCINOMA) “active; positive”; (Species: RAT, Strain/Sex: F344/FEMALE, Route: ORAL, Dose: 0, 2% IN DIET FOR 104 WK (STUDY DURATION: 104 WK)) “inactive; negative”; (Species: RAT, Strain/Sex: F344/FEMALE, Route: ORAL, Dose: 0, 2% IN DIET FOR 104 WK (STUDY DURATION: 104 WK), Tumor Site: Type of Lesion: FORESTOMACH: PAPILLOMA) “active; positive”. Further, the carcinogen call (Species: RAT, Strain/Sex: F344/FEMALE, Route: ORAL, Dose: 0, 2% IN POWDERED BASAL DIET FOR 104 WK (STUDY DURATION: 104 WK), Tumor Site: Type of Lesion: FORESTOMACH: PAPILLOMA) is “active; positive”; the carcinogen call (Species: RAT, Strain/Sex: F344/MALE, Route: ORAL, Dose: 0, 0.4% IN DIET FOR DURATION OF STUDY (STUDY DURATION: 104 WK)) was “inactive; negative”; the carcinogen call (Species: RAT, Strain/Sex: F344/MALE, Route: ORAL, Dose: 0, 2% IN DIET FOR 104 WK (STUDY DURATION: 104 WK), Tumor Site: Type of Lesion: FORESTOMACH: PAPILLOMA, SQUAMOUS CELL CARCINOMA) is “active; positive”; the carcinogen call (Species: RAT, Strain/Sex: F344/MALE, Route: ORAL, Dose: 0, 2% IN DIET FOR 104 WK (STUDY DURATION: 104 WK), Tumor Site: Type of Lesion: FORESTOMACH: SQUAMOUS CELL CARCINOMA) was “active; positive”; the carcinogen call (Species: RAT, Strain/Sex: F344/MALE, Route: ORAL, Dose: 0, 2% IN POWDERED BASAL DIET FOR 104 WK (STUDY DURATION: 104 WK), Tumor Site: Type of Lesion: FORESTOMACH: PAPILLOMA, SQUAMOUS CELL CARCINOMA) is “active; positive”.
Consider `O=P(O)(O)CCCl`, for which the carcinogen call is “inactive; negative” (Species: Mouse, Strain/Sex: CD-1 albino/Female (20 or 50/Group), Route: Oral, Dose: 0, 100, 1000, 10,000 ppm of 70.6-72.1% ethephon for 52 (20/Group) wks and 78 (50/Group) wks, Dose: 0, 100, 1000, 10,000 ppm of 70.6-72.1% ethephon for 52 (20/Group) wks and 78 (50/Group) wks); “inactive; negative” (Species: Mouse, Strain/Sex: CD-1 albino/Male (20 or 50/Group), Route: Oral, Dose: 0, 100, 1000, 10,000 ppm of 70.6-72.1% ethephon for 52 (20/Group) wks and 78 (50/Group) wks, Dose: 0, 100, 1000, 10,000 ppm of 70.6-72.1% ethephon for 52 (20/Group) wks and 78 (50/Group) wks); “inactive; negative” (Species: Rat, Strain/Sex: Sprague-Dawley CD/Female (30 or 50/Group), Route: Oral, Dose: 0, 300, 3000, 10,000, 30,000 ppm of 70.6-72.1% ethephon for 104 wks, study duration 104 wks, Dose: 0, 300, 3000, 10,000, 30,000 ppm of 70.6-72.1% ethephon for 104 wks, study duration 104 wks); “inactive; negative” (Species: Rat, Strain/Sex: Sprague-Dawley CD/Male (30 or 50/Group), Route: Oral, Dose: 0, 300, 3000, 10,000, 30,000 ppm of 70.6-72.1% ethephon for 97 wks, study duration 97 wks, Dose: 0, 300, 3000, 10,000, 30,000 ppm of 70.6-72.1% ethephon for 97 wks, study duration 97 wks).
On to `O=C1CCO1`, for which the carcinogen call was “active; positive” (Species: MOUSE, Route: DERMAL, Tumor Site: Type of Lesion: INTEGUMENTARY SYSTEM (SKIN)); “active; positive” (Species: MOUSE, Route: INTRAPERITONEAL, Tumor Site: Type of Lesion: LIVER, LYMPHATIC SYSTEM: LYMPHOMA); “active; positive” (Species: MOUSE, Route: SUBCUTANEOUS, Tumor Site: Type of Lesion: INJECTION SITE); “active; positive” (Species: MOUSE, Strain/Sex: CF1/FEMALE, Route: DERMAL, Dose: 0, 2% IN ACETONE 2D/WK FOR 2 YR (STUDY DURATION: 2 YR), Tumor Site: Type of Lesion: SKIN: SQUAMOUS CELL CARCINOMA, SKIN: CARCINOSARCOMA); “active; positive” (Species: MOUSE, Strain/Sex: CF1/MALE, Route: DERMAL, Dose: 0, 2% IN ACETONE 2D/WK FOR 104 WK (STUDY DURATION: 2 YR), Tumor Site: Type of Lesion: SKIN: SQUAMOUS CELL CARCINOMA, SKIN: DERMAL FIBROSARCOMA, SKIN: CARCINOSARCOMA, Tumor Site: Type of Lesion: SKIN: SQUAMOUS CELL CARCINOMA, SKIN: DERMAL FIBROSARCOMA, SKIN: CARCINOSARCOMA); “active; positive” (Species: RAT, Route: SUBCUTANEOUS, Tumor Site: Type of Lesion: INJECTION SITE). Moreover, the carcinogen call (Species: RAT, Strain/Sex: SPRAGUE-DAWLEY/MALE, Route: INHALATION, Dose: 0, 5, 10, 20 PPM 6 HR/D 5 D/WK FOR 30 D EXCEPT 20 PPM GROUP WHICH WAS EXPOSED FOR 5 D (STUDY DURATION: LIFETIME), Dose: 0, 5, 10, 20 PPM 6 HR/D 5 D/WK FOR 30 D EXCEPT 20 PPM GROUP WHICH WAS EXPOSED FOR 5 D (STUDY DURATION: LIFETIME), Tumor Site: Type of Lesion: NASAL CAVITY: TUMORS) was “active; positive”.
On to `[Be]`, for which the carcinogen call is “active; positive” (Species: RAT, Strain/Sex: WISTAR/FEMALE, Route: INTRATRACHEAL, Dose: 0, 0.5, 2.5 MG, SINGLE DOSE IN SALINE SUSPENSION, Tumor Site: Type of Lesion: LUNG) and “active; positive” (Species: RAT, Strain/Sex: WISTAR/FEMALE, Route: INTRATRACHEAL, Dose: 0.5, 2.5 MG/RAT IN SALINE SUSPENDED ONCE, Tumor Site: Type of Lesion: LUNG).
Turning to `C1CSCN1`, the carcinogen call (Species: MOUSE, Strain/Sex: CD-1/FEMALE, Route: DERMAL, Dose: 0, 50 UMOL/0.1 ML DMSO 2/WK FOR 5 WK FOLLOWED 1 WK LATER BY 0.1 ML ACETONE 2/WK FOR 47 WK (STUDY DURATION: 52 WK)) is “inactive; negative”.
Turning to `NNc1nc(-c2ccc([N+](=O)[O-])o2)cs1`, the carcinogen call (Species: RAT, Strain/Sex: SPRAGUE-DAWLEY/FEMALE, Route: ORAL, Dose: 0, 0.089% OF DIET FOR 46 WK FOLLOWED BY CONTROL DIET FOR 20 WK FOR A TOTAL DOSE OF 0, 4.2 G (STUDY DURATION: 66 WK), Dose: 0, 0.089% OF DIET FOR 46 WK FOLLOWED BY CONTROL DIET FOR 20 WK FOR A TOTAL DOSE OF 0, 4.2 G (STUDY DURATION: 66 WK), Tumor Site: Type of Lesion: MAMMARY GLAND: ADENOCARCINOMA, MAMMARY GLAND: ADENOFIBROMA OR FIBROADENOMA) was “active; positive”.
`CCCCOC(=O)c1ccc(O)cc1`: the carcinogen call reads like this: (Species: MOUSE, Strain/Sex: ICR/FEMALE, Route: ORAL, Dose: 0, 0.15, 0.3, 0.6% IN DIET FOR 102 WK (STUDY DURATION: 106 WK), Dose: 0, 0.15, 0.3, 0.6% IN DIET FOR 102 WK (STUDY DURATION: 106 WK)) “inactive; negative”; (Species: MOUSE, Strain/Sex: ICR/MALE, Route: ORAL, Dose: 0, O.15, 0.3, 0.6% IN DIET FOR 102 WK (STUDY DURATION: 106 WK), Dose: 0, O.15, 0.3, 0.6% IN DIET FOR 102 WK (STUDY DURATION: 106 WK)) “inactive; negative”.
Regarding `O=S(=O)(O)c1c(N=Nc2c(O)ccc3ccccc23)ccc2ccccc12`, the carcinogen call (Species: MOUSE, Strain/Sex: ICR/FEMALE, Route: DERMAL, Dose: 0, 1 MG IN 0.1 ML DISTILLED WATER 2/WK FOR A MEAN TOTAL DOSE OF 128.1 MG (STUDY DURATION: 18 MO)) is “inactive; negative” and the carcinogen call (Species: MOUSE, Strain/Sex: ICR/MALE, Route: DERMAL, Dose: 0, 1 MG IN 0.1 ML DISTILLED WATER 2/WK FOR A MEAN TOTAL DOSE OF 128.1 MG (STUDY DURATION: 18 MO)) was “inactive; negative”.

The values above are taken from PubChem BioAssay AID1259411 (Chemical Carcinogenesis Research Information System (CCRIS), 2018).
